Measurements taken from US12209096B2, “Compounds and compositions for inducing chondrogenesis” (NOVARTIS AG, priority 2017, dated 2025).
Read-outs that look alike come from different tables or passages of the source.

System: NHACs
Assay: calcium flux assay
Type: cell-based, human
Details: for Emax: read-out: (A) % Efficacy
Description: NHACs were plated in 1536 Greiner plate at 2000 cells/well in 4 ul volume. 24 hours later, 4 ul of Calcium 5 dye solution (Hank's Balanced Salt/HEPES buffer containing 5 mM of Probenecid) was then added and incubated for 1 hour at room temperature. Fluorescence readings at excitation wavelength of 470-495 nm and emission wavelength of 515-575 nm were done using FLIPR high-throughput screening system (Molecular Devices, Sunnyvale, CA). The test compound was then added to each well at the indicated dose. Signal was measured prior compound dispense and after using a first interval of 1 second for 60 reads and second interval of 3 second for 20 reads. Data was analyzed using Molecular Devices ScreenWorks® Software.

EC50 (Homo sapiens) [µM]	EC50 [µM]	Molecule	Emax (Homo sapiens) [%]	(A) % Efficacy [%]
> 50		CN[C@@H]1C[C@H]2O[C@@H]1[C@H](c1ccnc(F)c1)[C@H]2C(=O)Nc1cnc(Cl)c(Cl)c1 [Example 174, (1R,2R,3S,4R,5R)—N-(5,6-dichloropyridin-3-yl)-3-(2-fluoropyridin-4-yl)-5-(methylamino)-7-oxabicyclo[2.2.1]heptane-2-carboxamide]	37	
18		COc1cc([C@H]2[C@H]3O[C@H](C[C@H]3F)[C@H]2C(=O)Nc2ccc(Cl)c(Cl)c2)ccn1 [Example 65, (1R,2S,3S,4R,5R)—N-(3,4-dichlorophenyl)-5-fluoro-3-(2-methoxypyridin-4-yl)-7-oxabicyclo[2.2.1]heptane-2-carboxamide]	169	
4.5		Cc1cc([C@H]2[C@H]3O[C@H](C[C@H]3F)[C@H]2C(=O)Nc2ccc(Cl)c(Cl)c2)ccn1 [Example 13, (1R,2S,3S,4R,5R)-N-(3,4-dichlorophenyl)-5-fluoro-3-(2-methylpyridin-4-yl)-7-oxabicyclo[2.2.1]heptane-2-carboxamide]	68	
> 50		Nc1ncc([C@H]2[C@H]3O[C@H](C[C@@H]3F)[C@H]2C(=O)Nc2ccc(Cl)c(Cl)c2)cn1 [Example 20, (1R,2S,3S,4R,5S)-3-(2-aminopyrimidin-5-yl)-N-(3,4-dichlorophenyl)-5-fluoro-7-oxabicyclo[2.2.1]heptane-2-carboxamide]	5	
5.8		COc1cc([C@H]2[C@H]3O[C@H]([C@@H]4C[C@@H]43)[C@@H]2C(=O)Nc2cnc(Cl)c(Cl)c2)ccn1 [Example 76, (1S,2S,4R,5R,6R,7S)—N-(5,6-dichloropyridin-3-yl)-7-(2-methoxypyridin-4-yl)-8-oxatricyclo[3.2.1.0^2,4]octane-6-carboxamide]	123	
8.3		COc1ccc(NC(=O)[C@H]2[C@@H](c3ccnc(C)c3)[C@H]3O[C@@H]2C[C@H]3F)cn1 [Example 14, (1R,2S,3S,4R,5R)-5-fluoro-N-(6-methoxypyridin-3-yl)-3-(2-methylpyridin-4-yl)-7-oxabicyclo[2.2.1]heptane-2-carboxamide]	115	
28		O=C(Nc1ccc(Cl)c(Cl)c1)[C@@H]1[C@@H](c2cc(F)ncc2F)[C@H]2O[C@@H]1C[C@@H]2O [Example 147, (1R,2R,3S,4R,5S)—N-(3,4-dichlorophenyl)-3-(2,5-difluoropyridin-4-yl)-5-hydroxy-7-oxabicyclo[2.2.1]heptane-2-carboxamide]	284	
13		O=C(Nc1cnc(Cl)c(Cl)c1)[C@@H]1[C@@H]2O[C@@H]([C@H]3C[C@H]32)[C@@H]1c1ccnc(F)c1F [Example 32, (1S,2S,4R,5R,6S,7S)—N-(5,6-dichloropyridin-3-yl)-7-(2,3-difluoropyridin-4-yl)-8-oxatricyclo[3.2.1.0^2,4]octane-6-carboxamide]	143	
> 50		O=C(Nc1ccc(Cl)c(Cl)c1)[C@@H]1[C@H](c2ccnc(F)c2)[C@@H]2O[C@H]1C[C@H]2O (single isomer, unassigned) [Example 52b]	1	
	> 50	(1S,2S,4R,5R,6S,7S)-N-(3,4-dichlorophenyl)-7-(2-methylpyridin-4-yl)-8-oxatricyclo[3.2.1.0^2,4]octane-6-carboxamide [Example 23]		54
24		Cc1cc([C@@H]2[C@@H](C(=O)Nc3ccc(Cl)c(Cl)c3)[C@@H]3O[C@H]2C[C@H]3F)ccn1 [Example 106, (1S,2R,3S,4S,6R)—N-(3,4-dichlorophenyl)-6-fluoro-3-(2-methylpyridin-4-yl)-7-oxabicyclo[2.2.1]heptane-2-carboxamide]	84	
26		CO[C@H]1C[C@H]2O[C@@H]1[C@H](c1ccnc(C)c1)[C@H]2C(=O)Nc1ccc(Cl)c(Cl)c1 [Example 155, (1R,2R,3S,4R,5S)—N-(3,4-dichlorophenyl)-5-methoxy-3-(2-methylpyridin-4-yl)-7-oxabicyclo[2.2.1]heptane-2-carboxamide]	262	
17		O=C(Nc1cnc(Cl)c(Cl)c1)[C@H]1[C@@H]2O[C@@H]([C@H]3C[C@H]32)[C@@H]1c1ccncc1 [Example 136, (1S,2S,4R,5R,6R,7S)—N-(5,6-dichloropyridin-3-yl)-7-(pyridin-4-yl)-8-oxatricyclo[3.2.1.0^2,4]octane-6-carboxamide]	254	
24		CN[C@@H]1C[C@H]2O[C@@H]1[C@H](c1ccnc(F)c1)[C@H]2C(=O)Nc1ccc(Cl)c(Cl)c1 [Example 171, (1R,2R,3S,4R,5R)—N-(3,4-dichlorophenyl)-3-(2-fluoropyridin-4-yl)-5-(methylamino)-7-oxabicyclo[2.2.1]heptane-2-carboxamide]	237	
> 50		O=C(Nc1ccc(Cl)c(Cl)c1)[C@H]1[C@@H](c2ccnc(F)c2)[C@H]2O[C@@H]1C[C@@H]2O (racemic) [Example 52, rac-(1R,2S,3S,4R,5S)—N-(3,4-dichlorophenyl)-3-(2-fluoropyridin-4-yl)-5-hydroxy-7-oxabicyclo[2.2.1]heptane-2-carboxamide]	4	
8.6		O=C(Nc1ccc(Cl)c(Cl)c1)[C@@H]1[C@@H]2O[C@@H]([C@H]3C[C@H]32)[C@@H]1c1cnc(F)nc1 [Example 36, (1S,2S,4R,5R,6S,7S)—N-(3,4-dichlorophenyl)-7-(2-fluoropyrimidin-5-yl)-8-oxatricyclo[3.2.1.0^2,4]octane-6-carboxamide]	124	
16		Cc1ncc([C@H]2[C@H]3O[C@H]([C@@H]4C[C@@H]43)[C@@H]2C(=O)Nc2ccc(Cl)c(Cl)c2)cn1 [Example 135, (1S,2S,4R,5R,6R,7S)—N-(3,4-dichlorophenyl)-7-(2-methylpyrimidin-5-yl)-8-oxatricyclo[3.2.1.0^2,4]octane-6-carboxamide]	237	
12		Cc1cc([C@H]2[C@H]3O[C@H](C[C@@H]3F)[C@@H]2C(=O)Nc2cccc(C(F)(F)F)c2)ccn1 [Example 107, (1R,2R,3S,4R,5S)-5-fluoro-3-(2-methylpyridin-4-yl)-N-(3-(trifluoromethyl)phenyl)-7-oxabicyclo[2.2.1]heptane-2-carboxamide]	139	
2.1		Cc1cc([C@H]2[C@H]3O[C@H](C[C@H]3F)[C@@H]2C(=O)Nc2ncc(C)s2)ccn1 [Example 102, (1R,2R,3S,4R,5R)-5-fluoro-3-(2-methylpyridin-4-yl)-N-(5-methylthiazol-2-yl)-7-oxabicyclo[2.2.1]heptane-2-carboxamide]	84	
10		O=C(Nc1ccc(Cl)c(Cl)c1)[C@H]1[C@H]2O[C@H]([C@@H]3C[C@@H]32)[C@H]1c1ccnc(F)c1F (single isomer, unassigned) [Example 30]	133	
> 50		Cc1cc([C@H]2[C@H]3O[C@H](C[C@@H]3O)[C@H]2C(=O)Nc2ccc(Cl)c(Cl)c2)ccn1 (racemic) [Example 53, rac-(1R,2S,3S,4R,5S)—N-(3,4-dichlorophenyl)-5-hydroxy-3-(2-methylpyridin-4-yl)-7-oxabicyclo[2.2.1]heptane-2-carboxamide]	43	
15		Cc1cc([C@H]2[C@H]3O[C@H]([C@@H]4C[C@@H]43)[C@@H]2C(=O)Nc2ccc(Cl)c(F)c2)ccn1 [Example 68, (1S,2S,4R,5R,6R,7S)—N-(4-chloro-3-fluorophenyl)-7-(2-methylpyridin-4-yl)-8-oxatricyclo[3.2.1.0^2,4]octane-6-carboxamide]	306	
10		O=C(Nc1ccc(Cl)c(Cl)c1)[C@H]1[C@@H]2O[C@@H]([C@H]3C[C@H]32)[C@@H]1c1cncnc1 (racemic) [Example 126, rac-(1S,2S,4R,5R,6R,7S)—N-(3,4-dichlorophenyl)-7-(pyrimidin-5-yl)-8-oxatricyclo[3.2.1.0^2,4]octane-6-carboxamide]	212	
17		COc1ccc(NC(=O)[C@H]2[C@@H]3O[C@@H]([C@H]4C[C@H]43)[C@@H]2c2ccncc2)cn1 [Example 125, (1S,2S,4R,5R,6R,7S)—N-(6-methoxypyridin-3-yl)-7-(pyridin-4-yl)-8-oxatricyclo[3.2.1.0^2,4]octane-6-carboxamide]	162	
14		Cc1cc([C@H]2[C@H]3O[C@H]([C@@H]4C[C@@H]43)[C@H]2C(=O)Nc2cnc(Cl)c(Cl)c2)ccn1 (single isomer, unassigned) [Example 45]	32	
18		Cc1cc([C@H]2[C@H]3O[C@H](C[C@H]3F)[C@@H]2C(=O)Nc2ccc(OC(F)(F)F)c(F)c2)ccn1 [Example 100, (1R,2R,3S,4R,5R)-5-fluoro-N-(3-fluoro-4-(trifluoromethoxy)phenyl)-3-(2-methylpyridin-4-yl)-7-oxabicyclo[2.2.1]heptane-2-carboxamide]	310	
0.79		O=C(Nc1ccc(Cl)c(Cl)c1)[C@H]1[C@H](c2ccnc(F)c2)[C@@H]2O[C@H]1C[C@H]2O [Example 142b, (1S,2S,3R,4S,5R)-N-(3,4-dichlorophenyl)-3-(2-fluoropyridin-4-yl)-5-hydroxy-7-oxabicyclo[2.2.1]heptane-2-carboxamide]	54	
5		O=C(Nc1ccc(Cl)c(Cl)c1)[C@H]1[C@@H]2O[C@@H]([C@H]3C[C@H]32)[C@@H]1c1ccnc(F)c1F (racemic) [Example 122, rac-(1S,2S,4R,5R,6R,7S)—N-(3,4-dichlorophenyl)-7-(2,3-difluoropyridin-4-yl)-8-oxatricyclo[3.2.1.0^2,4]octane-6-carboxamide]	32	
